The test deals with T1, human 11βHSD1 enzyme (Homo sapiens, UniProt P28845).
T1 construct: baculovirus expressed N terminal 6-His tagged full length human 11βHSD1 enzyme; 6-His (N); made in house
Description: 11βHSD1 cortisone to cortisol conversion, competitive HTRF assay. It counts as biochemical. The settings on record: for inhibition at 30 µM: human 11-βHSD, test concentration of 30 μM of compound; for IC50: recombinant N terminal 6-His tagged full length human 11βHSD1, cortisone 160 nM, 25 minutes at 37° C. On the procedure: The evaluation of compounds described herein was carried out using a baculovirus expressed N terminal 6-His tagged full length human 11βHSD1 enzyme(*1). The enzyme was purified from a detergent solubilised cell lysate, using a copper chelate column. Inhibitors of 11βHSD1 reduce the conversion of cortisone to cortisol, which is identified by an increase in signal, in the above assay.
Compounds to be tested were dissolved in dimethyl sulphoxide (DMSO) to 10 mM and diluted further in assay buffer containing 1% DMSO to 10 fold the final assay concentration. Diluted compounds were then plated into black 384 well plates (Matrix, Hudson N.H., USA).
Fluorescence at 665 nm and 620 nm was measured and the 665 nm:620 nm ratio calculated using an Envision plate reader.

T1 sequence (P28845 whole entry): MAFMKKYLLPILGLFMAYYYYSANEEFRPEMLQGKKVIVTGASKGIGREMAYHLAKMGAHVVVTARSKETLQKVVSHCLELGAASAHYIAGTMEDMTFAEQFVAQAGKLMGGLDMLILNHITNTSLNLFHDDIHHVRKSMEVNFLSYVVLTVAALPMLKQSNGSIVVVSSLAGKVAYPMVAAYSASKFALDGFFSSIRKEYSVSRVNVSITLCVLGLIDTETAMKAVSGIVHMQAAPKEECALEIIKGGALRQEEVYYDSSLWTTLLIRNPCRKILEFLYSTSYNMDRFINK

By inhibition is commonly meant the relative decrease from the control value, in per cent. Regarding `O=C(N[C@H]1C2CC3CC1C[C@@](O)(C3)C2)c1cnc(NC2CCC2)nc1C1CCC1` [Example 98, N-[(2r,5s)-5-hydroxyadamantan-2-yl] 4-cyclobutyl-2-(cyclobutylamino)pyrimidine-5-carboxamide], the inhibition at 30 µM came to 97.8%. Same read-out and setting: under `CNc1ncc(C(=O)N[C@H]2C3CC4CC2C[C@@](O)(C4)C3)c(C2CCC2)n1` [Example 91, 4-cyclobutyl-N-[(2r,5s)-5-hydroxyadamantan-2-yl]-2-(methylamino)pyrimidine-5-carboxamide] stands 95.7%; under `O=C(N[C@H]1C2CC3CC1C[C@@](O)(C3)C2)c1cnc(OC2COC2)nc1C1CCC1` [Example 109, 4-cyclobutyl-N-[(2r,5s)-5-hydroxyadamantan-2-yl]-2-(oxetan-3-yloxy)pyrimidine-5-carboxamide], 90.3%. Still for that read-out and setting: the same measure for `O=C(N[C@H]1C2CC3CC1C[C@@](O)(C3)C2)c1cnc(NC2CC2)nc1C1CC1` [Example 56, 4-cyclopropyl-2-(cyclopropylamino)-N-[(2r,5s)-5-hydroxyadamantan-2-yl]pyrimidine-5-carboxamide]: 90.2%; for `O=C(N[C@H]1C2CC3CC1C[C@@](O)(C3)C2)c1cnc(OC2CCCC2)nc1C1CCCC1` [Example 112, 4-cyclopentyl-2-cyclopentyloxy-N-[(2r,Ss)-5-hydroxyadamantan-2-yl]pyrimidine-5-carboxamide]: 104%; for `O=C(N[C@H]1C2CC3CC1C[C@@](O)(C3)C2)c1cnc(N2CC[S+]([O-])CC2)nc1C1CCC1` [Example 82, 4-Cyclobutyl-N-[(2r,5 s)-5-hydroxyadamantan-2-yl]-2-(1-oxo-1,4-thiazinan-4-yl)pyrimidine-5-carboxamide]: 95.2%. Still for that read-out and setting: under `O=C(N[C@H]1C2CC3CC1C[C@@](O)(C3)C2)c1cnc(NC2CC2)nc1[C@@H]1CCCO1` [Example 180, 2-(cyclopropylamino)-N-[(2r,5s)-5-hydroxyadamantan-2-yl]-4-[(2S)-oxolan-2-yl]pyrimidine-5-carboxamide] stands 98.8%.

As for `CC(C)Oc1nc(NC2CC2)ncc1C(=O)N[C@H]1C2CC3CC1C[C@@](O)(C3)C2` [Example 215, 2-(cyclopropylamino)-N-[(2r,5s)-5-hydroxytricyclo[3.3.1.13,7]dec-2-yl]-4-(1-methylethoxy)pyrimidine-5-carboxamide], the inhibition at 30 µM was found to be 94.9%.

Turning to `CC(C)Oc1nc(N2C[C@@H](C)O[C@@H](C)C2)ncc1C(=O)N[C@H]1C2CC3CC1C[C@@](O)(C3)C2` [Example 214, 2-[(2R,6S)-2,6-dimethylmorpholin-4-yl]-N-[(2r,5s)-5-hydroxytricyclo[3.3.1.13,7]dec-2-yl]-4-(1-methylethoxy)pyrimidine-5-carboxamide], the inhibition at 30 µM stood at 103%. On to `O=C(NC1C2CC3CC1CC(O)(C3)C2)c1cnc(N2C[C@@H]3C[C@H]2CO3)nc1C1CCC1` (stereo partly drawn) [Example 103, 4-cyclobutyl-N-[(2r,5s)-5-hydroxyadamantan-2-yl]-2-[(1S,4S)-2-oxa-5-azabicyclo[2.2.1]hept-5-yl]pyrimidine-5-carboxamide], for which the inhibition at 30 µM was determined as 95.7%. Turning to `O=C(N[C@H]1C2CC3CC1C[C@@](O)(C3)C2)c1cnc(N2CCC2)nc1C1CCC1` [Example 85, 2-Azetidin-1-yl-4-cyclobutyl-N-[(2r,5s)-5-hydroxyadamantan-2-yl]pyrimidine-5-carboxamide], the inhibition at 30 µM came out at 88.8%.

`C[C@@H]1CN(c2ncc(C(=O)N[C@H]3C4CC5CC3C[C@@](O)(C5)C4)c(C3CC(F)(F)C3)n2)C[C@H](C)O1` [Example 156, 4-(3,3-difluorocyclobutyl)-2-[(2S,6R)-2,6-dimethylmorpholin-4-yl]-N-[(2r,5s)-5-hydroxyadamantan-2-yl]pyrimidine-5-carboxamide]: the inhibition at 30 µM is 65.5%. As usually defined, the IC50 is the concentration that gives 50% inhibition. Regarding `CCCSc1ncc(C(=O)N[C@H]2C3CC4CC2C[C@@](O)(C4)C3)c(N(C)C)n1` [Example 18, 4-Dimethylamino-N-[(2r,5s)-5-hydroxyadamantan-2-yl]-2-propylsulfanylpyrimidine-5-carboxamide], the inhibition at 30 µM stood at 98.5% and the IC50 stood at 3 nM. As to `O=C(N[C@H]1C2CC3CC1C[C@@](O)(C3)C2)c1cnc(N2CCS(=O)(=O)CC2)nc1C1CCCC1` [Example 116, 4-Cyclopentyl-2-(1,1-dioxo-1,4-thiazinan-4-yl)-N-[(2r,5s)-5-hydroxyadamantan-2-yl]pyrimidine-5-carboxamide], the inhibition at 30 µM worked out at 98.1%. The same measure, in the same setting: under `O=C(N[C@H]1C2CC3CC1C[C@@](O)(C3)C2)c1cnc(N2CCC2)nc1C1CC1` [Example 53, 2-(azetidin-1-yl)-4-cyclopropyl-N-[(2r,5s)-5-hydroxyadamantan-2-yl]pyrimidine-5-carboxamide] stands 102%.

On to `CSc1ncc(C(=O)N[C@H]2C3CC4CC2C[C@@](O)(C4)C3)c([C@@H]2CCCO2)n1` [Example 177, N-[(2r,5s)-5-hydroxyadamantan-2-yl]-2-methylsulfanyl-4-[(2S)-oxolan-2-yl]pyrimidine-5-carboxamide], for which the inhibition at 30 µM amounted to 95.8%. Still for that read-out and setting: under `Cc1ncc(C(=O)N[C@H]2C3CC4CC2C[C@@](O)(C4)C3)c(CC(C)(C)C)n1` [Example 193, 4-(2,2-Dimethylpropyl)-N-[(2r,5s)-5-hydroxyadamantan-2-yl]-2-methylpyrimidine-5-carboxamide] stands 102%; under `O=C(N[C@H]1C2CC3CC1C[C@@](O)(C3)C2)c1cnc(NC2CCC2)nc1C1CC1` [Example 54, (cyclobutylamino)-4-cyclopropyl-N-[(2r,5s)-5-hydroxyadamantan-2-yl]pyrimidine-5-carboxamide], 102%; under `CC(C)Nc1ncc(C(=O)N[C@H]2C3CC4CC2C[C@@](O)(C4)C3)c(C2CC2)n1` [Example 64, 4-cyclopropyl-N-[(2r,5s)-5-hydroxyadamantan-2-yl]-2-(isopropylamino)pyrimidine-5-carboxamide], 95.9%. The same measure, in the same setting: the same measure for `O=C(N[C@H]1C2CC3CC1C[C@@](O)(C3)C2)c1cnc(OC2COC2)nc1C1CCCC1` [Example 113, 4-cyclopentyl-N-[(2r,5s)-5-hydroxyadamantan-2-yl]-2-(oxetan-3-yloxy)pyrimidine-5-carboxamide]: 98.4%; for `CC(C)Nc1ncc(C(=O)N[C@H]2C3CC4CC2C[C@@](O)(C4)C3)c(C2CCC2)n1` [Example 94, 4-cyclobutyl-N-[(2r,5s)-5-hydroxyadamantan-2-yl]-2-(isopropylamino)pyrimidine-5-carboxamide]: 103%; for `O=C(N[C@H]1C2CC3CC1C[C@@](O)(C3)C2)c1cnc(NCCN2CCOCC2)nc1C1CC1` [Example 72, 4-cyclopropyl-N-[(2r,5s)-5-hydroxyadamantan-2-yl]-2-[(2-morpholin-4-ylethyl)amino]pyrimidine-5-carboxamide]: 91.6%. The same measure, in the same setting: under `CC(C)c1ncc(C(=O)N[C@H]2C3CC4CC2C[C@@](O)(C4)C3)c(C2CCCC2)n1` [Example 150, 4-Cyclopentyl-N-[(2r,5s)-5-hydroxyadamantan-2-yl]-2-propan-2-ylpyrimidine-5-carboxamide] stands 96%; under `C[C@@H]1CN(c2ncc(C(=O)N[C@H]3C4CC5CC3C[C@@](O)(C5)C4)c(C3CC3)n2)C[C@H](C)N1` [Example 62, 4-cyclopropyl-2-[(3R,5S)-3,5-dimethylpiperazin-1-yl]-N-[(2r,5s)-5-hydroxyadamantan-2-yl]pyrimidine-5-carboxamide], 99.9%; under `Cc1ncc(C(=O)N[C@H]2C3CC4CC2C[C@@](O)(C4)C3)c(C2CC(F)(F)C2)n1` [Example 153, 4-(3,3-difluorocyclobutyl)-N-[(2s,5r)-5-hydroxyadamantan-2-yl]-2-methylpyrimidine-5-carboxamide], 91.7%.

Turning to `CC(C)(C)c1ncncc1C(=O)N[C@H]1C2CC3CC1C[C@@](O)(C3)C2` [Example 7], the inhibition at 30 µM was 88.3%. As to `O=C(N[C@H]1C2CC3CC1C[C@@](O)(C3)C2)c1cnc(N[C@H]2CCOC2)nc1C1CCCC1` [Example 144, 4-cyclopentyl-N-[(2r,5s)-5-hydroxyadamantan-2-yl]-2-[[(3S)-oxolan-3-yl]amino]pyrimidine-5-carboxamide], the inhibition at 30 µM is 98.8%. The same measure, in the same setting: the same measure for `C[C@@H]1CN(c2ncc(C(=O)N[C@H]3C4CC5CC3C[C@@](O)(C5)C4)c(C3CCC3)n2)C[C@H](C)N1` [Example 99, 4-cyclobutyl-2-[(3R,5S)-3,5-dimethylpiperazin-1-yl]-N-[(2r,5s)-5-hydroxyadamantan-2-yl]pyrimidine-5-carboxamide]: 93.3%; for `CCOc1nc(NC2CCC2)ncc1C(=O)N[C@H]1C2CC3CC1C[C@@](O)(C3)C2` [Example 212, 2-(cyclobutylamino)-4-ethoxy-N-[(2r,5s)-5-hydroxytricyclo[3.3.1.13,7]dec-2-yl]pyrimidine-5-carboxamide]: 105%.

For the molecule `CCCSc1nc(N2CCN(C(=O)N(C)C)CC2)ncc1C(=O)NC1C2CC3CC(C2)CC1C3` (stereo not drawn) [Example 29, N-(2-adamantyl)-2-[4-(dimethylcarbamoyl)piperazin-1-yl]-4-propylsulfanyl-pyrimidine-5-carboxamide], the inhibition at 30 µM came out at 100% and the half-inhibitory concentration (IC50) came to 13 nM. For the molecule `O=C(N[C@H]1C2CC3CC1C[C@@](O)(C3)C2)c1cnc(N2CCC2)nc1C1CCCC1` [Example 131, 2-(azetidin-1-yl)-4-cyclopentyl-N-[(2r,5s)-5-hydroxyadamantan-2-yl]pyrimidine-5-carboxamide], the inhibition at 30 µM amounted to 101%.

For the origin of these results see patent US20090264401A1, “SUBSTITUTED PYRIMIDIN-5-CARBOXAMIDES 281” (AstraZeneca AB, priority 2008, published 2009).
